The text below walks through data of patent US6150335A, “Tic-containing opioid dipeptide derivatives useful as analgesics” (Astra AB, priority 1996, dated 2000).

For assay [1], the system named is guinea pig ileum (GPI). The assay can be described thus: Guinea pig ileum (GPI) bioassay: inhibition of electrically evoked contractions. Format: cell-based. Conditions: normalized with [Leu5]enkephalin standard, effect primarily μ-mediated. The method, then:
(§1) Bioassays based on inhibition of electrically evoked contractions of the mouse vas deferens (MVD) and of the guinea pig ileum (GPI) were performed. In the GPI assay the opioid effect is primarily mediated by μ opioid receptors, whereas in the MVD assay the inhibition of the contractions is mostly due to interaction with δ opioid receptors.
(§2) The GPI and MVD bioassays were carried out as reported in P. W. Schiller et al., Biochem. Biophys. Res. Commun. 85, 1332-1338 (1978) and J. DiMaio et al., J. Med. Chem. 25, 1432-1438 (1982). A log-dose response curve was determined with [Leu^5 ]enkephalin as standard for each ileum and vas preparation, and IC50 values of the compounds being tested were normalized according to A. A. Waterfield et al., Eur. J. Pharmacol. 58, 11-18 (1979).

Assay [2] concerns mouse vas deferens (MVD). The assay can be described thus: Mouse vas deferens (MVD) bioassay: inhibition of electrically evoked contractions. It counts as cell-based. The following applies: for IC50 / MVD IC50: inhibition of electrically evoked contractions, normalized with [Leu5]enkephalin standard, effect mostly δ-mediated; for GPI/MVD IC50 ratio: ratio of GPI IC50 to MVD IC50; for δ opioid agonist character (full / partial): conclusion from MVD and GPI assays. The method, then:
as §1, §2

For assay [3], the target named is T1, μ opioid receptor (Rattus norvegicus, UniProt P33535).
T1 construct: Male Sprague-Dawley rats (300-350 g) from the Canadian Breeding Laboratories were decapitated and after removal of the cerebellum the brains were homogenized; from tissue; host or cells: rat brain (without cerebellum) membranes, male Sprague-Dawley
T1 sequence (P33535 whole entry): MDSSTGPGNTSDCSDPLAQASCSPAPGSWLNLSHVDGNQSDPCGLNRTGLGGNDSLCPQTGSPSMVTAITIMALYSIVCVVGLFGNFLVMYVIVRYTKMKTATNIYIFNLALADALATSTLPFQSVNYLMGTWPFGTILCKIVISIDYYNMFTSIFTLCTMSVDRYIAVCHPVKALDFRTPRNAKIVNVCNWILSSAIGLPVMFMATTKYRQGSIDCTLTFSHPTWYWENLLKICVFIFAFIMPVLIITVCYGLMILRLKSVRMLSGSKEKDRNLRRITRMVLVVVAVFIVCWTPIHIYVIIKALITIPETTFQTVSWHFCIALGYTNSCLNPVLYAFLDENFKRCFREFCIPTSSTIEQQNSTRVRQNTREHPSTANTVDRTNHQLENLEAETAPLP
The assay can be described thus: μ opioid receptor binding assay, displacement of [3H]DAMGO from rat brain membranes. The following applies: [3H]DAMGO 0.7 nM, Cheng-Prusoff. The method, then:
(§3) μ and δ opioid receptor binding constants (Ki^μ,Ki^δ) of the compounds were determrined by displacement of relatively selective μ and δ radioligands from binding sites in rat brain membrane preparations calculated from the measured IC50 values on the basis of the equation by Cheng and Prusoff, (Y. C. Cheng and W. H. Prusoff Biochem. Pharmnacol. 22, 3099-3102 (1973)).
(§4) The μ-, δ- and κ-opioid receptor affinities of all new analogs were determined in binding assays based on displacement of μ-, δ- and κ-selective radioligands from rat brain membrane binding sites. In the case of κ-ligands guinea pig brain homogenates were used, since the relative proportion of κ-binding sites is higher in guinea pig brain than in rat brain. The experimental procedure being used in our laboratory represents a modified version of the binding assay described by Pasternak et al. (Mol. Pharnacol. 11, 340-351 (1975)). Male Sprague-Dawley rats (300-350 g) from the Canadian Breeding Laboratories were decapitated and after removal of the cerebellum the brains were homogenized in 30 volumes of ice-cold standard buffer (50 mnM Tris HCl , pH 7.7). After centrifugation at 30,000×g for 30 min at 4° C. the membranes were reconstituted in the original volume of standard buffer and incubated for 30 min at 37° C. (to release bound endogenous ligands). Subsequent centrifugation and resuspension of the pellet in the initial volume of fresh standard buffer yielded the final membrane suspension. Aliquots (2 ml) of the membrane preparations were incubated for 1-2 h at 25° C. with 1 ml standard buffer containing the peptide to be tested and one of the following radioligands at the final concentration indicated: [^3 H]DAMGO, μ-selective, 0.7 nM; [^3 H]DSLET, μ-selective, 1.0 nM; and [^3 H]U69,563, κ-selective, 0.5 nM. The incubation was terminated by filtration through Whatman GF/B filters under vacuum at 4° C. Following two washings with 5 ml portions of ice-cold standard buffer the filters were transferred to scintillation vials and treated with 1 ml Protosol (New England Nuclear) for 30 min prior to addition of 0.5 ml acetic acid and 10 ml Aquasol (New England Nuclear). After shaking for 30 min the vials were counted at an efficiency of 40-45%. All experiments were performed in duplicate and repeated at least three times. Specific binding of each of the three radioligands was defined by performing incubations in the presence of cold DAMGO, DSLET and U69,563, respectively, at a concentration of 1 micromolar. Values of half-maximal inhibition (IC50) of specific binding were obtained graphically from semilogarithmic plots. From the measured IC50-values, binding inhibition constants (Ki) were calculated based on Cheng and Prusoff's equation (Biochem. Pharmacol. 22, 3099-3102 (1973)). Ratios of the Ki -values determined in the μ-, δ- and κ-representative binding assays are a measure of the receptor selectivity of the compound under investigation (e.g. Ki^μ /Ki^μ indicates the selectivity for δ-receptors versus μ-receptors).
For orientation: Loss of bound radioactivity is the signal in a displacement assay; it reports binding, not function.

For assay [4], the target named is T2, δ opioid receptor (Rattus norvegicus, UniProt P33533).
T2 construct: Male Sprague-Dawley rats (300-350 g) from the Canadian Breeding Laboratories were decapitated and after removal of the cerebellum the brains were homogenized; from tissue; host or cells: rat brain (without cerebellum) membranes, male Sprague-Dawley
T2 sequence (P33533 whole entry): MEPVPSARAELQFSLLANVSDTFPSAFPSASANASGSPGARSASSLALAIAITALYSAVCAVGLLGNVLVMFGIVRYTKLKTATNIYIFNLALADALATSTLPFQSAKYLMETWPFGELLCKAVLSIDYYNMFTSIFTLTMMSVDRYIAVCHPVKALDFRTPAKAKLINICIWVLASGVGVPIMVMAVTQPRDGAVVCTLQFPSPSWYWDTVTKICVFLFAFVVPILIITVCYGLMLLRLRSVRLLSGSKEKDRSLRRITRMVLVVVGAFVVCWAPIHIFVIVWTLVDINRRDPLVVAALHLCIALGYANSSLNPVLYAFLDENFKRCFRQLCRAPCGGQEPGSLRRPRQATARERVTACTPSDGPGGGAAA
The assay can be described thus: δ opioid receptor binding assay, displacement of [3H]DSLET from rat brain membranes. Conditions: for Ki: rat brain membranes, [3H]DSLET 1.0 nM, Cheng-Prusoff; for Ki^μ/Ki^δ: δ versus μ receptor selectivity. The method, then:
as §3
as §4, with “[…];” for “[^3 H]DSLET, μ-selective, 1.0 nM;”

As to `CCOC(=O)C(CNC(=O)[C@@H]1Cc2ccccc2CN1C(=O)[C@@H](N)Cc1ccc(O)cc1)c1ccccc1` (single isomer, unassigned) [Example 16], in assay [1], the IC50 (commonly the concentration at which inhibition is half-maximal) was greater than 10 µM. In assay [2], the IC50 turned out to be 0.00864 ± 0.00131 µM and the “GPI/MVD IC50 ratio” value is recorded as greater than 1160. For the same compound, the inhibition constant Ki (in general, a measure of affinity in units of concentration, obtained from inhibition or displacement) in assay [3] was 0.153 ± 0.005 µM. Also, in assay [4], the inhibitory constant (Ki) amounted to 0.00303 ± 0.00066 µM and the “Ki^μ/Ki^δ” value came out at 50.5.
For the compound `NC(Cc1ccc(O)cc1)C(=O)N1Cc2ccccc2CC1C(=O)NC1CC1c1ccccc1` (single isomer, unassigned) [Example 22], the half-inhibitory concentration (IC50) in assay [1] was found to be 0.518 ± 0.147 µM. Besides, in assay [2], the 50% inhibitory concentration (IC50) was found to be 0.00731 ± 0.0023 µM and the “GPI/MVD IC50 ratio” value is 70.9. The compound also came in with an inhibition constant (Ki) in assay [3] of 0.0115 ± 0.0011 µM. Moreover, in assay [4], the Ki came to 0.00136 ± 0.00015 µM and the “Ki^μ/Ki^δ” value came out at 8.46.
`NC(=O)C(CNC(=O)[C@@H]1Cc2ccccc2CN1C(=O)[C@@H](N)Cc1ccc(O)cc1)c1ccccc1` (single isomer, unassigned) [Example 18]: the IC50 in assay [1] was greater than 10 µM. In addition, in assay [2], the “δ opioid agonist character (full / partial)” value was “partial δ agonists” and the “MVD IC50” value is listed as “partial agonist”. For the same compound, the inhibition constant Ki in assay [3] worked out at 0.191 ± 0.019 µM. For the same compound, in assay [4], the Ki was 0.0228 ± 0.0025 µM and the “Ki^μ/Ki^δ” value stood at 8.38.
The compound `N[C@@H](Cc1ccc(O)cc1)C(=O)N1Cc2ccccc2C[C@H]1C(=O)NCCc1ccccc1Br` [Example 5] had an IC50 in assay [1] of 0.613 ± 0.026 µM. Further, in assay [2], it took 0.0139 ± 0.0019 µM to reach half-maximal inhibition (IC50) and the “GPI/MVD IC50 ratio” value worked out at 44.1. In addition, in assay [3], the Ki worked out at 0.0233 ± 0.0077 µM. In addition, in assay [4], the affinity corresponds to a Ki of 0.00124 ± 0.00027 µM and the “Ki^μ/Ki^δ” value is given as 18.8.
Compound `N[C@@H](Cc1ccc(O)cc1)C(=O)N1Cc2ccccc2C[C@H]1C(=O)N[C@H]1CCc2ccccc2C1` [Example 19, H-Tyr-Tic-2-S-At (At = aminotetralin)] returned a concentration for half-maximal inhibition (IC50) in assay [1] of 1.71 ± 0.23 µM. Moreover, in assay [2], the IC50 amounted to 0.0381 µM and the “GPI/MVD IC50 ratio” value is on record as 44.9. Also, in assay [3], affinity was put at a Ki of 0.0558 ± 0.0063 µM. Further, in assay [4], the Ki stood at 0.00455 µM and the “Ki^μ/Ki^δ” value was determined as 12.3.
For the compound `N[C@@H](Cc1ccc(O)cc1)C(=O)N1Cc2ccccc2C[C@H]1C(=O)NCCc1ccccc1[N+](=O)[O-]` [Example 29], the IC50 in assay [1] was found to be 1.85 ± 0.54 µM. Besides, in assay [2], the half-maximal inhibitory concentration (IC50) stood at 0.0291 ± 0.0106 µM and the “GPI/MVD IC50 ratio” value stood at 63.6. In assay [3], this compound had an inhibition constant (Ki) of 0.355 ± 0.013 µM. Moreover, in assay [4], the inhibition constant (Ki) stood at 0.0077 ± 0.00045 µM and the “Ki^μ/Ki^δ” value is reported as 46.1.
As for `N[C@@H](Cc1ccc(O)cc1)C(=O)N1Cc2ccccc2C[C@H]1C(=O)NCC(C1CCCCC1)C1CCCCC1` [Example 23], the values for the IC50 in assay [1] and in assay [2] were 1.58 ± 0.61 µM and 0.0215 ± 0.0068 µM, respectively. The “GPI/MVD IC50 ratio” value in assay [2] is on record as 73.5. Besides, the results for the Ki in assay [3] and in assay [4] were 0.0524 ± 0.0025 µM and 0.0113 ± 0.0033 µM, respectively. In addition, the “Ki^μ/Ki^δ” value in assay [4] came to 4.64.
`N[C@@H](Cc1ccc(O)cc1)C(=O)N1Cc2ccccc2C[C@H]1C(=O)NCC(c1ccc(Cl)cc1)c1ccc(Cl)cc1` [Example 26]: the figures for the concentration for half-maximal inhibition (IC50) in assay [1] and in assay [2] were greater than 10 µM and 0.397 ± 0.033 µM, respectively. Also, in assay [2], the “GPI/MVD IC50 ratio” value is greater than 25.2. Further, the Ki in assay [3] was 1.56 ± 0.06 µM; in assay [4] it was 0.00282 ± 7e-05 µM. The “Ki^μ/Ki^δ” value in assay [4] turned out to be 553.
As for `CCOC(=O)C(CNC(=O)[C@@H]1Cc2ccccc2CN1C(=O)[C@@H](N)Cc1ccc(O)cc1)c1ccccc1` (single isomer, unassigned) [Example 15], the half-inhibitory concentration (IC50) in assay [1] is greater than 10 µM. In assay [2], the half-maximal inhibitory concentration (IC50) came out at 0.00128 ± 0.00018 µM and the “GPI/MVD IC50 ratio” value is greater than 7810. The compound further registered a Ki in assay [3] of 0.886 ± 0.172 µM. Also, in assay [4], the Ki was 0.000569 ± 8e-05 µM and the “Ki^μ/Ki^δ” value worked out at 1560.
`Nc1ccc(C(CNC(=O)[C@@H]2Cc3ccccc3CN2C(=O)[C@@H](N)Cc2ccc(O)cc2)c2ccc(N)cc2)cc1` [Example 25] came in with an IC50 in assay [1] greater than 10 µM. In addition, in assay [2], the half-maximal inhibitory concentration (IC50) amounted to 0.00781 ± 0.00048 µM and the “GPI/MVD IC50 ratio” value is recorded as greater than 1280. The compound further came in with a Ki in assay [3] of 5.34 ± 0.7 µM. For the same compound, in assay [4], the Ki is 0.00267 ± 0.00083 µM and the “Ki^μ/Ki^δ” value is 2000.
In assay [1], `CCOC(=O)C(CNC(=O)[C@@H]1Cc2ccccc2CN1C(=O)[C@@H](N)Cc1ccc(O)cc1C)c1ccccc1` (single isomer, unassigned) [Example 30] had an IC50 of 0.826 ± 0.183 µM. Also, in assay [2], the half-maximal inhibitory concentration (IC50) came out at 0.00162 ± 0.00012 µM and the “GPI/MVD IC50 ratio” value stood at 510. For the same compound, the Ki in assay [3] was found to be 0.164 ± 0.011 µM. For the same compound, in assay [4], affinity was put at a Ki of 0.00163 ± 0.00027 µM and the “Ki^μ/Ki^δ” value was 101.
Consider `NC(Cc1ccc(O)cc1)C(=O)N1Cc2ccccc2CC1C(=O)NC1CC1c1ccccc1` (single isomer, unassigned) [Example 21], for which inhibition in assay [1] was half-maximal at 1.6 ± 0.5 µM (IC50). In addition, in assay [2], the “δ opioid agonist character (full / partial)” value is “partial δ agonists” and the “MVD IC50” value is on record as “partial agonist”. The affinity in assay [3] corresponds to a Ki of 0.038 ± 0.0112 µM. In assay [4], the affinity, expressed as Ki, was 0.00413 ± 0.00027 µM and the “Ki^μ/Ki^δ” value was found to be 9.20.
For `N[C@@H](Cc1ccc(O)cc1)C(=O)N1Cc2ccccc2C[C@H]1C(=O)NCC(c1ccc([N+](=O)[O-])cc1)c1ccc([N+](=O)[O-])cc1` [Example 24], the IC50 in assay [1] was 5.2 ± 1.1 µM. In addition, in assay [2], 0.00891 ± 0.00153 µM corresponded to half-maximal inhibition (IC50) and the “GPI/MVD IC50 ratio” value is 584. Further, the affinity in assay [3] corresponds to a Ki of 0.635 ± 0.109 µM. In assay [4], the Ki came to 0.00717 ± 0.00024 µM and the “Ki^μ/Ki^δ” value worked out at 88.6.
Take `Cc1ccccc1CCNC(=O)[C@@H]1Cc2ccccc2CN1C(=O)[C@@H](N)Cc1ccc(O)cc1` [Example 6]: the IC50 in assay [1] turned out to be 0.759 ± 0.152 µM. For the same compound, in assay [2], 0.0101 ± 0.0012 µM corresponded to half-maximal inhibition (IC50) and the “GPI/MVD IC50 ratio” value is 75.1. In assay [3], this compound registered an inhibition constant Ki of 0.0387 ± 0.0089 µM. Further, in assay [4], the Ki was 0.00175 ± 0.0001 µM and the “Ki^μ/Ki^δ” value stood at 22.1.
